Publication PMC10932305, “RAR Inhibitors Display Photo-Protective and Anti-Inflammatory Effects in A2E Stimulated RPE Cells In Vitro through Non-Specific Modulation of PPAR or RXR Transactivation” (International Journal of Molecular Sciences, 2024)

Molecular target: T1, RAR-α (retinoic acid receptor α) (Homo sapiens, UniProt P10276)
T1 construct: gene RARA; human recombinant RARα-LBD expressed in insect cells
T1 sequence (P10276 183-417 limits assumed): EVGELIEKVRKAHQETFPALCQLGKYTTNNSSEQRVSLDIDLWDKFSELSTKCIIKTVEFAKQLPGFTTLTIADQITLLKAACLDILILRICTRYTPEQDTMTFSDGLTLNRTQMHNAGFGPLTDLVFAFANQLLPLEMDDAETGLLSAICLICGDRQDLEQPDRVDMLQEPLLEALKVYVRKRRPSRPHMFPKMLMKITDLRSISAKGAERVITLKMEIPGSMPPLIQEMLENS
Experiment: radioligand competition binding (Eurofins Cerep)

Row | Kd | SMILES
1 | 1.4 µM | CC1=C(/C=C/C(C)=C/C=C/C(C)=C/c2cc(/C=C/C=C(C)/C=C/C3=C(C)CCCC3(C)C)cc[n+]2CCO)C(C)(C)CCC1 [A2E]
2 | 47 µM | CC(=C/C=C/C(C)=C/C=C/C=C(C)/C=C/C=C(C)/C=C/C(=O)O)/C=C/C(=O)O [NBX, norbixin]
